{
  "source": "patent US7632819B1",
  "about": "“Methods and compositions for inhibiting PKC delta cleavage for treatment and prevention of neurodegeneration and apoptosis” (Iowa State University Research Foundation, Inc., priority 2004, dated 2009)",
  "key": {"[1]": {"test_system": "N27 mesencephalic neuronal cells", "test": "MTT cytotoxicity assay, MPP+- and 6-OHDA-induced cytotoxicity", "conditions": "N27 cells, 100 μM 6-OHDA 24 hr, inhibitor 50 μM", "description": "(§1) Chemicals. Protease cocktail, ATP, protein-A-sepharose, protein-G-sepharose and anti-â-actin antibody were obtained from Sigma-Aldrich (St. Louis, Mo.); mouse tyrosine hydroxylase antibody was purchased from Chemicon (Temecula, Calif.); the rabbit polyclonal antibody for tyrosine hydroxylase was obtained from Calbiochem Bioscience, Inc. (King of Prussia, Pa.); rabbit PKCδ antibody was purchased from Santa Cruz Biotechnology, Inc. (Santa Cruz, Calif.); anti-rabbit and anti-mouse secondary antibodies and the ECL chemiluminescence kit were purchased from Amersham Pharmacia Biotech. (Piscataway, N.J.). Alexa 488 conjugated antirabbit/mouse, Cy3 conjugated anti-rabbit/mouse antibody and Hoechst 33342 were purchased from Molecular Probes, Inc. (Eugene, Oreg.). [ã-32P]ATP was purchased from Perkin Elmer Life Science Products (Boston, Mass.). The Bradford protein assay kit was purchased from Bio-Rad Laboratories (Hercules, Calif.). RPMI, fetal bovine serum, -glutamine, penicillin, and streptomycin were purchased from Invitrogen (Gaithersburg, Md.). Quantity One 4.2.0 software was purchased from Bio-Rad. Design and synthesis of z-DIPD-fmk (SEQ ID NO:5). To develop a cell permeable peptide inhibitor to specifically block PKCδ cleavage, we designed the tetrapeptide Asp-Ile-Pro-Asp (DIPD) (SEQ ID NO:5) corresponding to position 324-327 in rat PKCδ cDNA representing the caspase-3 cleavage site. Since this peptide is directed against the caspase-3 cleavage site of PKCδ, it should prevent the proteolytic cleavage and activation of PKCδ mediated by caspase-3. The custom synthesis of the tetrapeptide Z-Asp(OMe)-Ile-Pro-Asp(OMe)-FMK (SEQ ID NO:5) was performed at MP Biomedicals (Irvine, Calif.), a quality company that specializes in developing cell permeable peptide inhibitors directed against apoptosis cell signaling molecules. […]"}, "PKCδ [2]": {"test_system": "PKCδ", "test": "Immunoprecipitation kinase assay (histone H1 phosphorylation) in N27 cells", "type": "cell-based, rat", "conditions": "inhibitor 50 μM", "description": "as §1, with “molecules. Briefly, the synthesis was performed with the reaction of Boc-D(OMe)-OH with MBFM (Magnesium benzyl fluoromalonate) to produce Beta-Keto fluoroester, followed by hydrogenation with Pd/c to produce Boc-D(OMe)FK, which was converted into Tfa salt using trifluoroacetic acid. Coupling of Tfa salt with Z-D(OMe)—I—P—OH in DMF with HOBT, HBTU DIEA and workup produced a crude product which was purified by column chromatography over silica gel. Elution with EtOAC:MeOH 95:5 gave pure fractions which were mixed and dried. Crystallization with EtOAC/Hexane, filtration and drying produced the pure product. Animals. Time-pregnant C57/bL mice were housed under standard conditions: constant temperature (22±1° C.), humidity (relative, 30%) and a 12-h light/dark cycle with free access to food and water. The animals and protocol procedures were approved and supervised by the Committee on Animal Care (COAC) at Iowa State University. Cell culture.” for “molecules.”"}, "PKCδ [3]": {"test_system": "PKCδ", "test": "Western blot of PKCδ proteolytic cleavage in N27 cells", "type": "cell-based, rat", "description": "as §1"}, "caspase-3": {"target": "T1, caspase-3 (Rattus norvegicus, UniProt P55213)", "T1 construct": "N27 cells were exposed to either MPP^+ or 6-OHDA in the absence or presence of z-DIPD-fmk; endogenous in cells; host or cells: N27 rat mesencephalic dopaminergic neuronal cells", "T1 sequence (P55213 29-175 limits assumed)": "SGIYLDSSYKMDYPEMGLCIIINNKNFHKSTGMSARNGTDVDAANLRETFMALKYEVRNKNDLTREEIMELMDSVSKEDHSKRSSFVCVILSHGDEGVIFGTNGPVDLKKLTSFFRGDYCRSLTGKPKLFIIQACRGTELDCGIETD", "T1 sequence (P55213 176-277 limits assumed)": "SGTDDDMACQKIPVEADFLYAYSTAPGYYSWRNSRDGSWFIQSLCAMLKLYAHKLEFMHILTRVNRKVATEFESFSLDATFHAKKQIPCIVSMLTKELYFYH", "test": "Caspase-3 activity assay with fluorogenic substrate Ac-DEVD-AFC in treated N27 cells", "type": "cell-based", "description": "Chemicals. Protease cocktail, ATP, protein-A-sepharose, protein-G-sepharose and anti-â-actin antibody were obtained from Sigma-Aldrich (St. Louis, Mo.); mouse tyrosine hydroxylase antibody was purchased from Chemicon (Temecula, Calif.); the rabbit polyclonal antibody for tyrosine hydroxylase was obtained from Calbiochem Bioscience, Inc. (King of Prussia, Pa.); rabbit PKCδ antibody was purchased from Santa Cruz Biotechnology, Inc. (Santa Cruz, Calif.); anti-rabbit and anti-mouse secondary antibodies and the ECL chemiluminescence kit were purchased from Amersham Pharmacia Biotech. (Piscataway, N.J.). Alexa 488 conjugated antirabbit/mouse, Cy3 conjugated anti-rabbit/mouse antibody and Hoechst 33342 were purchased from Molecular Probes, Inc. (Eugene, Oreg.). [ã-32P]ATP was purchased from Perkin Elmer Life Science Products (Boston, Mass.). The Bradford protein assay kit was purchased from Bio-Rad Laboratories (Hercules, Calif.). RPMI, fetal bovine serum, -glutamine, penicillin, and streptomycin were purchased from Invitrogen (Gaithersburg, Md.). Quantity One 4.2.0 software was purchased from Bio-Rad. Design and synthesis of z-DIPD-fmk (SEQ ID NO:5). To develop a cell permeable peptide inhibitor to specifically block PKCδ cleavage, we designed the tetrapeptide Asp-Ile-Pro-Asp (DIPD) (SEQ ID NO:5) corresponding to position 324-327 in rat PKCδ cDNA representing the caspase-3 cleavage site. Since this peptide is directed against the caspase-3 cleavage site of PKCδ, it should prevent the proteolytic cleavage and activation of PKCδ mediated by caspase-3. The custom synthesis of the tetrapeptide Z-Asp(OMe)-Ile-Pro-Asp(OMe)-FMK (SEQ ID NO:5) was performed at MP Biomedicals (Irvine, Calif.), a quality company that specializes in developing cell permeable peptide inhibitors directed against apoptosis cell signaling molecules. Briefly, the synthesis was performed with the reaction of Boc-D(OMe)-OH with MBFM (Magnesium benzyl fluoromalonate) to produce Beta-Keto fluoroester, followed by hydrogenation with Pd/c to produce Boc-D(OMe)FK, which was converted into Tfa salt using trifluoroacetic acid. Coupling of Tfa salt with Z-D(OMe)—I—P—OH in DMF with HOBT, HBTU DIEA and workup produced a crude product which was purified by column chromatography over silica gel. Elution with EtOAC:MeOH 95:5 gave pure fractions which were mixed and dried. Crystallization with EtOAC/Hexane, filtration and drying produced the pure product. Animals. Time-pregnant C57/bL mice were housed under standard conditions: constant temperature (22±1° C.), humidity (relative, 30%) and a 12-h light/dark cycle with free access to food and water. The animals and protocol procedures were approved and supervised by the Committee on Animal Care (COAC) at Iowa State University. Cell culture. Rat mesencephalic dopaminergic neuronal (N27) cells were cultured as described earlier (Anantharam et al., 2002). Briefly, cells were grown in RPMI 1640 medium containing 10% fetal bovine serum, 2 mM L-glutamine, 50 units of penicillin, and 50 μg/ml streptomycin. Cells were maintained in a humidified atmosphere of 5% CO2 at 37° C. Primary mesencephalic neuronal cultures were prepared from the ventral mesencephalon of gestational 18-day-old mice embryos as described previously (Yang et al., 2004). Mesencephalic tissues were dissected and maintained in ice-cold Ca2+-free HBSS and then dissociated in HBSS solution containing trypsin-EDTA (0.25%) for 20 min at 37° C. […]"}, "[4]": {"test_system": "primary mesencephalic dopaminergic neuronal cells", "test": "TH immunostaining, TH+ cell count and neuronal process length in primary mesencephalic cultures", "type": "cell-based, mouse", "description": "Chemicals. Protease cocktail, ATP, protein-A-sepharose, protein-G-sepharose and anti-â-actin antibody were obtained from Sigma-Aldrich (St. Louis, Mo.); mouse tyrosine hydroxylase antibody was purchased from Chemicon (Temecula, Calif.); the rabbit polyclonal antibody for tyrosine hydroxylase was obtained from Calbiochem Bioscience, Inc. (King of Prussia, Pa.); rabbit PKCδ antibody was purchased from Santa Cruz Biotechnology, Inc. (Santa Cruz, Calif.); anti-rabbit and anti-mouse secondary antibodies and the ECL chemiluminescence kit were purchased from Amersham Pharmacia Biotech. (Piscataway, N.J.). Alexa 488 conjugated antirabbit/mouse, Cy3 conjugated anti-rabbit/mouse antibody and Hoechst 33342 were purchased from Molecular Probes, Inc. (Eugene, Oreg.). [ã-32P]ATP was purchased from Perkin Elmer Life Science Products (Boston, Mass.). The Bradford protein assay kit was purchased from Bio-Rad Laboratories (Hercules, Calif.). RPMI, fetal bovine serum, -glutamine, penicillin, and streptomycin were purchased from Invitrogen (Gaithersburg, Md.). Quantity One 4.2.0 software was purchased from Bio-Rad. Design and synthesis of z-DIPD-fmk (SEQ ID NO:5). To develop a cell permeable peptide inhibitor to specifically block PKCδ cleavage, we designed the tetrapeptide Asp-Ile-Pro-Asp (DIPD) (SEQ ID NO:5) corresponding to position 324-327 in rat PKCδ cDNA representing the caspase-3 cleavage site. Since this peptide is directed against the caspase-3 cleavage site of PKCδ, it should prevent the proteolytic cleavage and activation of PKCδ mediated by caspase-3. The custom synthesis of the tetrapeptide Z-Asp(OMe)-Ile-Pro-Asp(OMe)-FMK (SEQ ID NO:5) was performed at MP Biomedicals (Irvine, Calif.), a quality company that specializes in developing cell permeable peptide inhibitors directed against apoptosis cell signaling molecules. Briefly, the synthesis was performed with the reaction of Boc-D(OMe)-OH with MBFM (Magnesium benzyl fluoromalonate) to produce Beta-Keto fluoroester, followed by hydrogenation with Pd/c to produce Boc-D(OMe)FK, which was converted into Tfa salt using trifluoroacetic acid. Coupling of Tfa salt with Z-D(OMe)—I—P—OH in DMF with HOBT, HBTU DIEA and workup produced a crude product which was purified by column chromatography over silica gel. Elution with EtOAC:MeOH 95:5 gave pure fractions which were mixed and dried. Crystallization with EtOAC/Hexane, filtration and drying produced the pure product. Animals. Time-pregnant C57/bL mice were housed under standard conditions: constant temperature (22±1° C.), humidity (relative, 30%) and a 12-h light/dark cycle with free access to food and water. The animals and protocol procedures were approved and supervised by the Committee on Animal Care (COAC) at Iowa State University. Cell culture. Rat mesencephalic dopaminergic neuronal (N27) cells were cultured as described earlier (Anantharam et al., 2002). Briefly, cells were grown in RPMI 1640 medium containing 10% fetal bovine serum, 2 mM L-glutamine, 50 units of penicillin, and 50 μg/ml streptomycin. Cells were maintained in a humidified atmosphere of 5% CO2 at 37° C. Primary mesencephalic neuronal cultures were prepared from the ventral mesencephalon of gestational 18-day-old mice embryos as described previously (Yang et al., 2004). Mesencephalic tissues were dissected and maintained in ice-cold Ca2+-free HBSS and then dissociated in HBSS solution containing trypsin-EDTA (0.25%) for 20 min at 37° C. The dissociated cells were then plated at equal density (0.5×10^6 cells) in 30-mm-diameter tissue culture wells pre-coated with poly-lysine (1 mg/ml). Cultures were maintained in a chemically defined, serum-free medium consisting of neurobasal medium fortified with B-27 supplements, L-glutamine (500 μM), penicillin (100 IU/ml), and streptomycin (100 μg/ml) (Life Technologies). The cells were maintained in a humidified CO2 incubator (5% CO2, 37° C.) for 24 hr and then treated with cytosine arabinoside (10 μM) for 24 hr to inhibit glial cell proliferation. […]"}, "[5]": {"conditions": "10 μM MPP+ 24 hr, inhibitor 10 and 50 μM"}},
  "note": "Where a SMILES comes first, the peptide text is derived from it. The star is where a group is joined. Cbz = O=C(OCc1ccccc1)*; CH2F = FC*",
  "data": [
    {"smiles": "CC[C@H](C)[C@H](NC(=O)[C@H](CC(=O)OC)NC(=O)OCc1ccccc1)C(=O)N1CCC[C@H]1C(=O)N[C@@H](CC(=O)OC)C(=O)CF", "note": "[z-DIPD-fmk, Z-Asp(OMe)-Ile-Pro-Asp(OMe)-FMK] (Cbz-D(OMe)IPD(OMe)-CH2F)", "values": [
      {"measurement": "protection against 6-OHDA-induced cell death (MTT)", "setting": "[1]", "result": "significantly protected"},
      {"measurement": "effect on 6-OHDA-induced PKCδ kinase activity", "setting": "PKCδ [2]; 100 μM 6-OHDA 24 hr", "result": "almost completely suppressed"},
      {"measurement": "effect on MPP+-induced PKCδ kinase activity", "setting": "PKCδ [2]; 300 μM MPP+ 36 hr", "result": "almost completely suppressed"},
      {"measurement": "effect on 6-OHDA-induced proteolytic cleavage of PKCδ", "setting": "PKCδ [3]; N27 cells, 100 μM 6-OHDA 24 hr, inhibitor 50 μM", "result": "significantly attenuated"},
      {"measurement": "effect on MPP+-induced proteolytic cleavage of PKCδ", "setting": "PKCδ [3]; N27 cells, 300 μM MPP+ 36 hr, inhibitor 50 μM", "result": "almost completely attenuated"},
      {"measurement": "effect on PKCδ cleavage and proteolytic activation in PD models", "setting": "PKCδ [3]; concentration not given", "result": "effectively blocked"},
      {"measurement": "effect on 6-OHDA-induced caspase-3 activation", "setting": "caspase-3; 100 μM 6-OHDA 24 hr, inhibitor 50 μM", "result": "completely blocked"},
      {"measurement": "effect on MPP+-induced caspase-3 activation", "setting": "caspase-3; 300 μM MPP+ 36 hr, inhibitor 50 μM", "result": "completely blocked"},
      {"measurement": "effect on MPP+- and 6-OHDA-induced caspase-3 activation", "setting": "caspase-3; co-treatment, concentration not given", "result": "dose-dependently attenuated"},
      {"measurement": "TH+ cell counts, protection against MPP+ neurotoxicity", "setting": "[4]; [5]", "result": "nearly complete protection"},
      {"measurement": "average lengths of TH+ neuronal processes versus MPP+ only", "setting": "[4]; [5]", "result": "significantly longer"},
      {"measurement": "TH+ cell counts, protection against 6-OHDA neurotoxicity", "setting": "[4]; 30 μM 6-OHDA 24 hr, inhibitor 10 and 50 μM", "result": "nearly complete protection"},
      {"measurement": "rescue of tyrosine hydroxylase positive neurons from MPP+- and 6-OHDA-induced toxicity", "setting": "[4]; mouse primary mesencephalic cultures", "result": "completely rescued"},
      {"measurement": "effect on 6-OHDA-induced degeneration of TH+ neurons and their processes", "setting": "[4]; primary nigral cultures, 30 μM 6-OHDA 24 hr, inhibitor 10 and 50 μM", "result": "significantly blocked"},
      {"measurement": "effect on MPP+-induced degeneration of TH+ neurons and their processes", "setting": "[4]; primary nigral dopaminergic neurons, 10 μM MPP+ 24 hr, inhibitor 10 and 50 μM", "result": "significantly blocked"}
    ]}
  ]
}
